Where a name gives a salt, the structure may show the parent alone. Read-outs that look alike come from different tables or passages of the source.
How the values were obtained:
Assay type in all cases: cell-based, human
MCF-7-AdrR cells [1] = test: Cytotoxicity assay in MCF-7-AdrR cells; settings: 72 hr exposure, read-out: EC50 (amount of drug provoking 50% cell death)
Description: (§1) Cytotoxicity Assay. Assays were performed as previously described (Liu, Y. Y., et al., (1999) J. Biol. Chem. 274, 1140-1146; Lavie, Y. et al., (1997) J. Biol. Chem. 272, 1682-1687). Briefly, cells were seeded in 96-well plates (2,000 cells/well), in 0.1 ml RPMI-1640 medium containing 10% FBS, and cultured at 37° C. for 24 hr before addition of drug. Drugs were added in FBS-free medium (0.1 ml), and cells were cultured at 37° C. for the indicated periods. Drug cytotoxicity was determined using the Promega 96 Aqueous cell proliferation assay kit (Promega, Madison, Wis.). Absorbance at 490 nm was recorded using a Microplate Fluorescent Reader, model FL600 (Bio-Tek, Winooski, Vt.).

MCF-7-AdrR/asGCS cells [2] = test: Cytotoxicity assay in MCF-7-AdrR/asGCS cells; settings: 72 hr exposure; for EC50: Homo sapiens, MCF-7-AdrR/asGCS cells, read-out: EC50 (amount of drug provoking 50% cell death)
Description: as §1

MCF-7-AdrR cells [3] = test: Analysis of ceramide in MCF-7-AdrR cells; settings: 48 hr
Description: (§2) Analysis of Ceramide. Analysis was performed as previously described (Liu, Y. Y.et al., (1999) J. Biol. Chem. 274, 1140-1146, Lavie, Y., et al., (1996) J. Biol. Chem. 271, 19530-19536). Cells were seeded in 6-well plates (60,000 cells/well) in 10% FBS RPMI-1640 medium. After 24 hr, cells were shifted to 5% FBS medium with or without adriamycin, and grown for the indicated times. Cellular lipids were radiolabeled by adding [3H]palmitic acid (2.5 μCi/ml culture medium) for 24 hr. After removal of medium, cells were rinsed twice with PBS (pH 7.4), and total lipids were extracted as described (Lavie, Y. et al.,. (1996) J. Biol. Chem. 271, 19530-19536). The resulting organic lower phase was withdrawn and evaporated under a stream of nitrogen. Lipids were resuspended in 100 μl of chloroform/methanol (1:1, v/v), and aliquots were applied to TLC plates. Ceramide was resolved using a solvent system containing chloroform/acetic acid (90:10, v/v). Commercial lipid standards were co-chromatographed. After development, lipids were visualized by iodine vapor staining, and the ceramide area was scraped into 0.5 ml water. EcoLume counting fluid (4.5 ml) was added, the samples were mixed, and radioactivity was quantitated by liquid scintillation spectrometry.

caspase-3 [4] = test: Caspase-3 assay (DEVD-AFC cleavage) in MCF-7-AdrR cells; settings: 10 μM, 48 hr
Description: (§3) Caspase-3 Assay. Caspase-3 activity was assayed by DEVD-AFC cleavage, using the ApoAlert Caspase-3 assay kit (Clontech, Palo Alto, Calif.). The assay was performed as previously described (Liu, Y. Y., et al., (1999) Exp. Cell Res. 252, 464-470). Cells were seeded in 100-mm dishes (500,000 cells/dish) in 10% FBS RPMI-1640 medium. After 24 hr, cells were shifted to 5% FBS RPMI-1640 medium without or with adriamycin, and grown for 24 and 48 hr. Following harvest, cells ([…]) were lysed on ice for 10 min with 50 μl of lysis buffer, and cell debris was removed by centrifugation at 4° C., 10,000×g, for 5 min. The soluble fraction was incubated with 50 μM conjugated substrate DEVD-AFC in a 100 μl reaction volume at 37° C., for 60 min. The free AFC fluoresce was measured at λexcitation 400 nm and λemission 505 nm using a FL600 Microplate Fluorescence Reader. The caspase-3 inhibitor, acetyl-Asp-Glu-Val-Asp-aldehyde was used to exclude nonspecific background in the enzymatic reaction.

MCF-7-AdrR/asGCS cells [5] = test: Analysis of ceramide in MCF-7-AdrR/asGCS cells
Description: as §2

caspase-3 [6] = test: Caspase-3 assay (DEVD-AFC cleavage) in MCF-7-AdrR/asGCS cells; settings: for increase of caspase-3 activity over control: MCF-7-AdrR/asGCS cells, 10 μM; for caspase-3 activity in GCS antisense-transfected cells vs parental cells: adriamycin 10 μM
Description: as §3

SMILES | EC50 (MCF-7-AdrR cells [1]; Homo sapiens, 72 h) [µM] | decrease of EC50 in MCF-7-AdrR/asGCS vs MCF-7-AdrR cells (MCF-7-AdrR/asGCS cells [2]) [fold] | EC50 (MCF-7-AdrR/asGCS cells [2]) [µM] | increase of ceramide levels above control (MCF-7-AdrR cells [3]; adriamycin 2.5 μM) [%] | ceramide level response (MCF-7-AdrR cells [3]; adriamycin 0.5-2.5 μM) | EC50 (MCF-7-AdrR cells [1]; hydrochloride) [µM] | increase of caspase-3 activity (caspase-3 [4]) [%] | enhancement of ceramide levels (MCF-7-AdrR/asGCS cells [5]; adriamycin 0.5 μM, 48 hr) [%] | enhancement of ceramide levels (MCF-7-AdrR/asGCS cells [5]; adriamycin 1.0 μM, 48 hr) [%] | increase of ceramide levels (MCF-7-AdrR/asGCS cells [5]; adriamycin 2.5 μM, 24 hr) [%] | increase of ceramide levels (MCF-7-AdrR/asGCS cells [5]; adriamycin 2.5 μM, 48 hr) [%] | enhancement of ceramide levels (MCF-7-AdrR/asGCS cells [5]; adriamycin 2.5 μM, 48 hr (dose series)) [%] | increase of caspase-3 activity over control (caspase-3 [6]; 24 hr) [%] | increase of caspase-3 activity over control (caspase-3 [6]; 48 hr) [%] | caspase-3 activity in GCS antisense-transfected cells vs parental cells (caspase-3 [6]; 24 hr) [fold] | caspase-3 activity in GCS antisense-transfected cells vs parental cells (caspase-3 [6]; 48 hr) [fold]
CCCCCCCCCCCCC/C=C/[C@@H](O)[C@H](CO)NC(=O)CCCCC [C6-ceramide, N-hexanoylsphingosine] | 9.6 ± 0.5 | 2.4 | 4 ± 0.03 | – | – | – | – | – | – | – | – | – | – | – | – | –
COc1cccc2c1C(=O)c1c(O)c3c(c(O)c1C2=O)C[C@@](O)(C(=O)CO)C[C@@H]3O[C@H]1C[C@H](N)[C@H](O)[C@H](C)O1 [adriamycin, doxorubicin hydrochloride] | 12.4 ± 0.7 | 28 | 0.44 ± 0.01 | 16 | minimal response | 10 | 160 | 181 | 188 | 200 | 250 | 246 | 290 | 980 | 3 | 6
